System: Monocotyledonous and dicotyledonous weed seeds and main crop seeds
Assay: Post-emergence test experiment, other weeds and crops (Table 4, 1000 g a.i./ha)
Format: in vivo
Settings: 3 weeks in greenhouse, fresh weight inhibition
Experimental: The above described growth inhibition rate is fresh weight inhibition rate.
Post-emergence test experiment: Monocotyledonous and dicotyledonous weed seeds and main crop seeds (i. e. wheat, corn, rice, soybean, cotton, oilseed, millet and sorghum.) were put into a plastic pot loaded with soil. Then covered with 0.5-2 cm soil, the seeds were allowed to grow in good greenhouse environment. The test plants were treated at 2-3 leaf stage 2 weeks after sowing. The test compounds of the invention were dissolved with acetone respectively, then added with tween-80, and using 1.5 liters per hectare of an emulsible concentrate of methyl oleate as a synergist, and diluted by certain amount of water to certain concentration. The solution was sprayed to the plants with a sprayer.

| Compound | Activity level (growth inhibition rate), Abutilon theophrasti Medic. | Activity level (growth inhibition rate), Galium aparine | Activity level (growth inhibition rate), Monochoria Vaginalis |
| --- | --- | --- | --- |
| COC(=O)C(CF)Oc1nc(F)c(Cl)c(N)c1Cl (stereo not drawn) [Compound 2-43] | 5 (Level 5: the growth inhibition rate is greater than 85%) | 5 (Level 5: the growth inhibition rate is greater than 85%) | 5 (Level 5: the growth inhibition rate is greater than 85%) |
| COC(=O)C(Oc1nc(F)c(Cl)c(N)c1Cl)C(F)F (stereo not drawn) [Compound 2-44] | 5 (Level 5: the growth inhibition rate is greater than 85%) | 5 (Level 5: the growth inhibition rate is greater than 85%) | 5 (Level 5: the growth inhibition rate is greater than 85%) |
| C=C[C@@H](Oc1nc(F)c(Cl)c(N)c1Cl)C(=O)OC [Compound 2-45] | 5 (Level 5: the growth inhibition rate is greater than 85%) | 5 (Level 5: the growth inhibition rate is greater than 85%) | 5 (Level 5: the growth inhibition rate is greater than 85%) |
| C#CC(Oc1nc(F)c(Cl)c(N)c1Cl)C(=O)OC (stereo not drawn) [Compound 2-46] | 5 (Level 5: the growth inhibition rate is greater than 85%) | 5 (Level 5: the growth inhibition rate is greater than 85%) | 5 (Level 5: the growth inhibition rate is greater than 85%) |
| COC(=O)C(Oc1nc(F)c(Cl)c(N)c1Cl)C(=O)OC [Compound 2-47] | 5 (Level 5: the growth inhibition rate is greater than 85%) | 5 (Level 5: the growth inhibition rate is greater than 85%) | 5 (Level 5: the growth inhibition rate is greater than 85%) |
| COC(=O)C(C=O)Oc1nc(F)c(Cl)c(N)c1Cl (stereo not drawn) [Compound 2-48] | 5 (Level 5: the growth inhibition rate is greater than 85%) | 5 (Level 5: the growth inhibition rate is greater than 85%) | 5 (Level 5: the growth inhibition rate is greater than 85%) |
| COC(=O)C(CO)Oc1nc(F)c(Cl)c(N)c1Cl (stereo not drawn) [Compound 2-49] | 5 (Level 5: the growth inhibition rate is greater than 85%) | 5 (Level 5: the growth inhibition rate is greater than 85%) | 5 (Level 5: the growth inhibition rate is greater than 85%) |
| COC(=O)C(Oc1nc(F)c(Cl)c(N)c1Cl)[N+](=O)[O-] (stereo not drawn) [Compound 2-50] | 5 (Level 5: the growth inhibition rate is greater than 85%) | 5 (Level 5: the growth inhibition rate is greater than 85%) | 5 (Level 5: the growth inhibition rate is greater than 85%) |
| COC(=O)C(F)Oc1nc(F)c(Cl)c(N)c1Cl (stereo not drawn) [Compound 2-51] | 5 (Level 5: the growth inhibition rate is greater than 85%) | 5 (Level 5: the growth inhibition rate is greater than 85%) | 5 (Level 5: the growth inhibition rate is greater than 85%) |
| COC(=O)C(Br)Oc1nc(F)c(Cl)c(N)c1Cl (stereo not drawn) [Compound 2-52] | 5 (Level 5: the growth inhibition rate is greater than 85%) | 5 (Level 5: the growth inhibition rate is greater than 85%) | 5 (Level 5: the growth inhibition rate is greater than 85%) |
| COC(=O)C(Cl)Oc1nc(F)c(Cl)c(N)c1Cl (stereo not drawn) [Compound 2-53] | 5 (Level 5: the growth inhibition rate is greater than 85%) | 5 (Level 5: the growth inhibition rate is greater than 85%) | 5 (Level 5: the growth inhibition rate is greater than 85%) |
